Reference: publication PMC6321168, “Comparative Study on Excretive Characterization of Main Components in Herb Pair Notoginseng-Safflower and Single Herbs by LC–MS/MS” (Pharmaceutics, 2018)

Assay: Fecal excretion study in rats after oral NS, SF or CNS (LC–MS/MS)
Assay type: in vivo
Conditions: rat feces
Description: The animal room was set at constant temperature of 20 ± 2 °C with humidity of 50 ± 20% and 12/12 h light/dark cycle.
Eighteen male rats were fasted for 12 h before starting the experiment. The rats were divided into three groups at random (n = 6) and received NS (60 mg/kg), SF (50 mg/kg), and NS (60 mg/kg) + SF (50 mg/kg), respectively, by oral gavage. The rats were placed in separate metabolic cages. The urine samples were collected at 0–2, 2–4, 4–6, 6–8, 8–12, 12–24, 24–36, 36–48, 48–72, 72–96, and 96–120 h. The feces samples were collected at 0–4, 4–8, 8–12, 12–24, 24–36, 36–48, 48–72, 72–96, and 96–120 h. The urine volume was recorded and the dry feces were measured for each collection period. Samples were stored at −80 °C until analysis.
Feces samples were homogenized in ultrapure water (1 g/15 mL), soaked for 30 min, ultrasonically extracted for 30 min and centrifuged at 9000 rpm for 8 min. An aliquot of 200 μL feces water extraction solution was mixed with 10 μL of IS and then extracted three times with water-saturated n-BuOH (150 μL). The upper organic phase was combined and evaporated to dryness using a ZLS-2 vacuum centrifugal concentrator. The residue was treated as the urine sample and a 1-μL aliquot was injected for LC–MS analysis.
Ultra fast liquid chromatography (UFLC) analysis was performed using a Shimadzu UFLC system (DGU-20A3R Degasser; LC-20AD pump; SIL-20AXR Autosampler; CTO-20AC Column Oven) (Nakagyo-Ku, Koyoto, Japan). […] Because of the different endogenous substances in the urine and feces samples, different elution gradients were used to alleviate the matrix effects for the analytes.
The mass spectrometric detection was performed on an ABSciex 4500 Qtrap mass spectrometer (ABSciex, Foster City, CA, USA) equipped with a negative electrospray ionization (ESI) interface using multiple reaction monitoring (MRM). The MS parameters were optimized under the selected ion monitoring conditions as follows: curtain gas, 35 psi; ionspray voltage, 4500 V; turbo gas temperature, 450 °C; GS1, 45 psi; GS2, 45 psi. All data were acquired and analyzed by Analyst software (Versions 1.6.2) from ABSciex.
The accumulative excretion percentage was calculated for each analyte as follows. Excretion at time (t) = [concentration of the analyte (ng/mL) at t] × total urine (or feces) volume (mL) at t. The cumulative excretion up to time t (mg) was expressed as a percent (%) cumulative excretion by dividing by the total amount of the analyte ingested (mg): % Cumulative Excretion = 100 × (Σt excretiont) total ingested.

concentration at 4 h (male, Sprague Dawley, oral CNS 110 mg/kg, 4 h): 87 ± 124 ng/mL
concentration at 8 h (male, Sprague Dawley, oral CNS 110 mg/kg, 8 h): 267 ± 204 ng/mL
concentration at 12 h (male, Sprague Dawley, oral CNS 110 mg/kg, 12 h): 330 ± 26 ng/mL
concentration at 24 h (male, Sprague Dawley, oral CNS 110 mg/kg, 24 h): 366 ± 20 ng/mL
concentration at 36 h (male, Sprague Dawley, oral CNS 110 mg/kg, 36 h): 367 ± 26 ng/mL
concentration at 48 h (male, Sprague Dawley, oral CNS 110 mg/kg, 48 h): 354 ± 28 ng/mL
concentration at 72 h (male, Sprague Dawley, oral CNS 110 mg/kg, 72 h): 168 ± 69 ng/mL
concentration at 96 h (male, Sprague Dawley, oral CNS 110 mg/kg, 96 h): 44 ± 43 ng/mL
concentration at 4 h (male, Sprague Dawley, oral NS 60 mg/kg, 4 h): 323 ± 43 ng/mL
concentration at 8 h (male, Sprague Dawley, oral NS 60 mg/kg, 8 h): 455 ± 18 ng/mL
concentration at 12 h (male, Sprague Dawley, oral NS 60 mg/kg, 12 h): 401 ± 27 ng/mL
concentration at 24 h (male, Sprague Dawley, oral NS 60 mg/kg, 24 h): 430 ± 15 ng/mL
concentration at 36 h (male, Sprague Dawley, oral NS 60 mg/kg, 36 h): 421 ± 18 ng/mL
concentration at 48 h (male, Sprague Dawley, oral NS 60 mg/kg, 48 h): 561 ± 26 ng/mL
concentration at 72 h (male, Sprague Dawley, oral NS 60 mg/kg, 72 h): 81 ± 6 ng/mL
concentration at 96 h (male, Sprague Dawley, oral NS 60 mg/kg, 96 h): 18 ± 1 ng/mL
concentration at 120 h (male, Sprague Dawley, oral NS 60 mg/kg, 120 h): 17 ± 2 ng/mL
Accumulative excretion amount (oral CNS 110 mg/kg, 4 h): 1.098 ± 1.616 µg
Accumulative excretion percentage (oral CNS 110 mg/kg, 4 h): 0.234±0.345%
Excretion amount (oral CNS 110 mg/kg, 4 h): 1.098 ± 1.616 µg
Accumulative excretion amount (oral CNS 110 mg/kg, 8 h): 4.802 ± 4.393 µg
Accumulative excretion percentage (oral CNS 110 mg/kg, 8 h): 1.022±0.936%
Excretion amount (oral CNS 110 mg/kg, 8 h): 3.705 ± 2.813 µg
Accumulative excretion amount (oral CNS 110 mg/kg, 12 h): 9.675 ± 4.726 µg
Accumulative excretion percentage (oral CNS 110 mg/kg, 12 h): 2.051±1.001%
Excretion amount (oral CNS 110 mg/kg, 12 h): 4.873 ± 1.226 µg
Accumulative excretion amount (oral CNS 110 mg/kg, 24 h): 15.135 ± 5.426 µg
Accumulative excretion percentage (oral CNS 110 mg/kg, 24 h): 3.203±1.152%
Excretion amount (oral CNS 110 mg/kg, 24 h): 5.459 ± 1.584 µg
Accumulative excretion amount (oral CNS 110 mg/kg, 36 h): 20.570 ± 6.347 µg
Accumulative excretion percentage (oral CNS 110 mg/kg, 36 h): 4.364±1.343%
Excretion amount (oral CNS 110 mg/kg, 36 h): 5.435 ± 1.413 µg
Accumulative excretion amount (oral CNS 110 mg/kg, 48 h): 25.852 ± 7.369 µg
Accumulative excretion percentage (oral CNS 110 mg/kg, 48 h): 5.469±1.568%
Excretion amount (oral CNS 110 mg/kg, 48 h): 5.282 ± 1.513 µg
Accumulative excretion percentage (oral CNS 110 mg/kg, 72 h): 6.027±1.613%
Excretion amount (oral CNS 110 mg/kg, 72 h): 2.615 ± 1.424 µg
Accumulative excretion amount (oral CNS 110 mg/kg, 96 h): 29.184 ± 7.675 µg
Accumulative excretion percentage (oral CNS 110 mg/kg, 96 h): 6.182±1.623%
Excretion amount (oral CNS 110 mg/kg, 96 h): 0.717 ± 0.713 µg
Accumulative excretion amount (oral CNS 110 mg/kg, 120 h): 29.184 ± 7.675 µg
Accumulative excretion percentage (oral CNS 110 mg/kg, 120 h): 6.182±1.623%
Accumulative excretion amount (oral NS 60 mg/kg, 4 h): 4.585 ± 1.408 µg
Accumulative excretion percentage (oral NS 60 mg/kg, 4 h): 0.852±0.261%
Excretion amount (oral NS 60 mg/kg, 4 h): 4.585 ± 1.408 µg
Accumulative excretion amount (oral NS 60 mg/kg, 8 h): 11.148 ± 3.459 µg
Accumulative excretion percentage (oral NS 60 mg/kg, 8 h): 2.063±0.644%
Excretion amount (oral NS 60 mg/kg, 8 h): 6.563 ± 2.122 µg
Accumulative excretion amount (oral NS 60 mg/kg, 12 h): 16.907 ± 5.229 µg
Accumulative excretion percentage (oral NS 60 mg/kg, 12 h): 3.122±0.971%
Excretion amount (oral NS 60 mg/kg, 12 h): 5.759 ± 1.787 µg
Accumulative excretion amount (oral NS 60 mg/kg, 24 h): 23.057 ± 7.062 µg
Accumulative excretion percentage (oral NS 60 mg/kg, 24 h): 4.266±1.305%
Excretion amount (oral NS 60 mg/kg, 24 h): 6.150 ± 1.850 µg
Accumulative excretion amount (oral NS 60 mg/kg, 36 h): 29.162 ± 9.141 µg
Accumulative excretion percentage (oral NS 60 mg/kg, 36 h): 5.397± 1.699%
Excretion amount (oral NS 60 mg/kg, 36 h): 6.105 ± 2.098 µg
Accumulative excretion amount (oral NS 60 mg/kg, 48 h): 37.268 ± 11.835 µg
Accumulative excretion percentage (oral NS 60 mg/kg, 48 h): 6.892±2.193%
Excretion amount (oral NS 60 mg/kg, 48 h): 8.106 ± 2.700 µg
Accumulative excretion amount (oral NS 60 mg/kg, 72 h): 38.423 ± 12.180 µg
Accumulative excretion percentage (oral NS 60 mg/kg, 72 h): 7.103±2.254%
Excretion amount (oral NS 60 mg/kg, 72 h): 1.155 ± 0.306 µg
Accumulative excretion amount (oral NS 60 mg/kg, 96 h): 38.685 ± 12.265 µg
Accumulative excretion percentage (oral NS 60 mg/kg, 96 h): 7.149±2.268%
Excretion amount (oral NS 60 mg/kg, 96 h): 0.262 ± 0.086 µg
Accumulative excretion amount (oral NS 60 mg/kg, 120 h): 38.937 ± 12.350 µg
Accumulative excretion percentage (oral NS 60 mg/kg, 120 h): 7.187±2.278%
Excretion amount (oral NS 60 mg/kg, 120 h): 0.252 ± 0.091 µg
SMILES: CC(C)=CCC[C@](C)(O[C@@H]1O[C@H](CO)[C@@H](O)[C@H](O)[C@H]1O)[C@H]1CC[C@]2(C)[C@@H]1[C@H](O)C[C@@H]1[C@@]3(C)CC[C@H](O)C(C)(C)[C@@H]3[C@@H](O[C@@H]3O[C@H](CO)[C@@H](O)[C@H](O)[C@H]3O[C@@H]3O[C@@H](C)[C@H](O)[C@@H](O)[C@H]3O)C[C@]12C [ginsenoside Re]
